Consider seven compounds from patent publication US20260092039A1, “DUAL INHIBITORS FOR THE TREATMENT OF ALZHEIMER'S DISEASE” (UNIVERSITAT DE BARCELONA, priority 2023, published 2026).

Data set [1] addresses T1, human recombinant glutaminyl cyclase (hQC) (Homo sapiens, UniProt Q16769).
T1 construct: purchased Eurogentec AS-72230
As to the kind of experiment: In vitro determination of human QC inhibitory activity (SensoLyte Green Glutaminyl Cyclase Activity Assay Kit). In kind it is biochemical. As to the method: Basic statistical analysis was performed.

For data set [2], the target named is T2, recombinant human sEH (hsEH) (Homo sapiens, UniProt P34913).
T2 sequence (P34913 1-555): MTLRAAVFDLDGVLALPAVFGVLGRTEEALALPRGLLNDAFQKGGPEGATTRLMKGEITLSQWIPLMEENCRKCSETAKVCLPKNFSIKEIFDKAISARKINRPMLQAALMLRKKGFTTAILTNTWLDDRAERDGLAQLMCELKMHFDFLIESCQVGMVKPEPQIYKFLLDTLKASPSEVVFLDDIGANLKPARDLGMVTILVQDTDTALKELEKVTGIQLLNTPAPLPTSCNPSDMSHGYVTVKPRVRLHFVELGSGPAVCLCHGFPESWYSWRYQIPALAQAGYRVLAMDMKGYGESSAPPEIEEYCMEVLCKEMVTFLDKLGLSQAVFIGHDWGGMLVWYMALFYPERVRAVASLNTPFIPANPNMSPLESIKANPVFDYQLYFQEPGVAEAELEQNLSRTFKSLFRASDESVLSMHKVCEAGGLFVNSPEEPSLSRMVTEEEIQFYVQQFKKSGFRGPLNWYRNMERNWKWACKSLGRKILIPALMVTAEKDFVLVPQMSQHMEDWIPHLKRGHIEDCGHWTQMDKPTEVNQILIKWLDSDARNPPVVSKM
As to the kind of experiment: In vitro determination of sEH inhibitory activity (fluorescent PHOME assay).
Protocol: Control compound (TPPU): N-[1-(1-Oxopropyl)-4-piperidinyl]-N′-[4-(trifluoromethoxy)phenyl]urea.
Five μL of DMSO were added to background and positive control wells, and then 5 μL of inhibitor solution were added in the inhibitor wells. Five μL of the solution of hsEH were added to the positive control and inhibitor wells and the mixture was stirred. A 1/21 dilution of the solution of PHOME with assay buffer was prepared according to the final volume required, and then 105 μL of each well were added. The plate was carefully shaken for 10 seconds and was incubated for 5 minutes at room temperature. […] The intensity of fluorescence was used to analyze and calculate the IC50 values. Results were obtained by regression analysis from at least three data points in a linear region of the curve. IC50 values are average of minimum three independent replicates.

Data set [3] can be described thus: Parallel artificial membrane permeation assay for blood-brain barrier (PAMPA-BBB). In kind it is in vitro ADME, porcine. The note with it: for Papp: pig, PBS:EtOH (70:30), read-out: Blood-brain barrier permeability Pe; for CNS prediction: predictive penetration in the CNS from Pe. As to the method:
A parallel artificial membrane permeation assay for blood-brain barrier (PAMPA-BBB) was used to evaluate the brain penetration of compounds of formula I, following the method described by L. Di et al., “High throughput artificial membrane permeability assay for blood-brain barrier”, European Journal of Medicinal Chemistry 2003, vol. 38. pp. 223-232. The in vitro permeability (Pe) of the test compounds through a lipid extract of porcine brain membrane was determined. Assayed compounds were tested using a mixture of PBS:EtOH (70:30). Assay validation was made by comparing the experimental and reported permeability values of a set of fourteen commercial drugs and a lineal correlation between experimental and reported permeability values of the fourteen commercial drugs was obtained (y=1.678 x−1.447; R^2=0.9313). From this equation and taking into account the limits established by Di et al. for BBB permeation, the ranges of permeability were established, as follows. Compounds of high BBB permeation (CNS+): Pe (10^−6 cm s^−1)>5.26; compounds of low BBB permeation (CNS−): Pe (10^−6 cm s^−1)<1.91; and compounds of uncertain BBB permeation (CNS+/−): 5.26>Pe (10^−6 cm s^−1)>1.91. The permeability results are averages of three different experiments in triplicate and a predictive penetration in the CNS is also given (Table 5).

pIC50: −log10 of the molar value.

T1 sequence (Q16769 29-361): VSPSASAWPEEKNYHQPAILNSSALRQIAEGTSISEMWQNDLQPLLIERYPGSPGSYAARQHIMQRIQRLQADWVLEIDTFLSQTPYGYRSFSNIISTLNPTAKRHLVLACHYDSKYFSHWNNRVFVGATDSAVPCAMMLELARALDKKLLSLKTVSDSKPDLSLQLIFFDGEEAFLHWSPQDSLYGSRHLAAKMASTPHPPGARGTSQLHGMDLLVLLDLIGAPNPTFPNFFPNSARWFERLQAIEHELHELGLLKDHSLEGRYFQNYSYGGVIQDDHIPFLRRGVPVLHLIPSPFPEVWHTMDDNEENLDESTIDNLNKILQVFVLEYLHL

Regarding `Cc1cncn1CCCNC(=O)NCC12CC3CC(CC(C3)C1)C2` [Ik, 1-[(adamantan-1-yl)methyl]-3-[3-(5-methyl-1H-imidazol-1-yl)propyl]urea], in data set [1], the pIC50 was 6.14. Also, the pIC50 in data set [2] is 8.05. Besides, in data set [3], the Papp came out at 14.1 ×10⁻⁶ cm/s and the CNS prediction result is reported as “CNS+ (Compounds of high BBB permeation (CNS+): Pe (10^−6 cm s^−1)>5.26)”.

Regarding `O=C(NCCCn1ccnc1)NCC12CC3CC(CC(C3)C1)C2` [Im, 1-[3-(1H-imidazol-1-yl)propyl]-3-[(adamantan-1-yl)methyl]urea], in data set [1], the pIC50 was 5.46. Besides, in data set [2], the pIC50 was 6.52. In data set [3], the Papp turned out to be 11.8 ×10⁻⁶ cm/s and the CNS prediction result was “CNS+ (Compounds of high BBB permeation (CNS+): Pe (10^−6 cm s^−1)>5.26)”.

`Cc1cncn1CCCNC(=O)NCCC12CC3CC(CC(C3)C1)C2` [Io, 1-[2-(adamantan-1-yl)ethyl]-3-[3-(5-methyl-1H-imidazol-1-yl)propyl]urea]: the pIC50 in data set [1] was 5.78. Besides, in data set [2], the pIC50 is 8.89. Also, in data set [3], the Papp was found to be 18.7 ×10⁻⁶ cm/s and the CNS prediction result was “CNS+ (Compounds of high BBB permeation (CNS+): Pe (10^−6 cm s^−1)>5.26)”.

`Cc1cncn1CCCNC(=O)NCCC1C2CC3CC(C2)CC1C3` (stereo not shown) [Ip, 1-[2-(adamantan-2-yl)ethyl]-3-[3-(5-methyl-1H-imidazol-1-yl)propyl]urea]: in data set [1], the pIC50 is 5.84. In addition, the pIC50 in data set [2] was 7.02. For the same compound, in data set [3], the Papp stood at 13 ×10⁻⁶ cm/s and the CNS prediction entry is reported as “CNS+ (Compounds of high BBB permeation (CNS+): Pe (10^−6 cm s^−1)>5.26)”.

With `Cc1cncn1CCCNC(=O)NC12CC3CC(CC1C3)C2` [It, 1-(noradamantan-3-yl)-3-[3-(5-methyl-1H-imidazol-1-yl)propyl]urea], the pIC50 in data set [1] is 6.34. For the same compound, the pIC50 in data set [2] is 6.73. In data set [3], the Papp was determined as 5.8 ×10⁻⁶ cm/s and the CNS prediction entry was “CNS+ (Compounds of high BBB permeation (CNS+): Pe (10^−6 cm s^−1)>5.26)”.

In the case of `Cc1cncn1CCCNC(=O)NC12CC3(C)C4(C)CC1CC4(C)C3(C)C2` [Iv, 1-[3-(5-methyl-1H-imidazol-1-yl)propyl]-3-(3,4,8,9-tetramethyltetracyclo[4.4.0.0^3,9.0^4,8]decan-1-yl)urea], the pIC50 in data set [1] is 6.27. In data set [2], the pIC50 is 6.99. Besides, in data set [3], the Papp came out at 7.5 ×10⁻⁶ cm/s and the CNS prediction result was “CNS+ (Compounds of high BBB permeation (CNS+): Pe (10^−6 cm s^−1)>5.26)”.

`Cc1cncn1CCCNC(=O)N(C)C1C2CC3CC(C2)CC1C3` (stereo not shown) [Iy, 1-(adamantan-2-yl)-1-methyl-3-[3-(5-methyl-1H-imidazol-1-yl)propyl]urea]: in data set [1], the pIC50 is 6.69. For the same compound, the pIC50 in data set [2] was 7.64. In addition, in data set [3], the Papp was 9.8 ×10⁻⁶ cm/s and the CNS prediction entry was “CNS+ (Compounds of high BBB permeation (CNS+): Pe (10^−6 cm s^−1)>5.26)”.
